How the values were obtained:
Test in all cases: relative viability (nuclei count vs DMSO), 5 days (fraction); higher = more cells survive
SW 1573 = system: SW 1573
Method in brief: (§1)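 Each reported value is a median over duplicate plates. It expresses relative viability: treated-well nuclei count divided by vehicle-well nuclei count. Lung cancer cell lines in 1536-well plates were dosed by pin tool a day after seeding, alone with one drug or with a fixed anchor-drug dose plus five library-drug doses (not always all listed) in √10 steps, and nuclei were counted after 5 days.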

EMC-BAC-2 = system: EMC-BAC-2
Method in brief: as §1

NCI-H358 = system: NCI-H358
Method in brief: as §1

LU99A = system: LU99A
Method in brief: as §1

NCI-H1395 = system: NCI-H1395
Method in brief: as §1

LC-2-ad = system: LC-2-ad
Method in brief: as §1

NCI-H2023 = system: NCI-H2023
Method in brief: as §1

NCI-H1734 = system: NCI-H1734
Method in brief: as §1

NCI-H2126 = system: NCI-H2126
Method in brief: as §1

SW 900 = system: SW 900
Method in brief: as §1

NCI-H1915 = system: NCI-H1915
Method in brief: as §1

NCI-H1437 = system: NCI-H1437
Method in brief: as §1

HCC-44 = system: HCC-44
Method in brief: as §1

HCC-15 = system: HCC-15
Method in brief: as §1

NCI-H727 = system: NCI-H727
Method in brief: as §1

NCI-H2170 = system: NCI-H2170
Method in brief: as §1

NCI-H1755 = system: NCI-H1755
Method in brief: as §1

NCI-H3122 = system: NCI-H3122
Method in brief: as §1

HOP-62 = system: HOP-62
Method in brief: as §1

BEN = system: BEN
Method in brief: as §1

NCI-H650 = system: NCI-H650
Method in brief: as §1

CCNC(=O)c1noc(-c2cc(C(C)C)c(O)cc2O)c1-c1ccc(CN2CCOCC2)cc1 [Luminespib] + O=C(CCCCCCC(=O)Nc1ccccc1)NO [Vorinostat] (partner 1 µM)
relative viability (SW 1573; first compound 0.002 µM): 0.742 | relative viability (SW 1573; first compound 0.006325 µM): 0.874 | relative viability (SW 1573; first compound 0.02 µM): 0.212 | relative viability (SW 1573; first compound 0.06325 µM): 0.0903 | relative viability (SW 1573; first compound 0.2 µM): 0.0874 | relative viability (EMC-BAC-2; first compound 0.002 µM): 0.461 | relative viability (EMC-BAC-2; first compound 0.02 µM): 0.263 | relative viability (EMC-BAC-2; first compound 0.06325 µM): 0.148 | relative viability (EMC-BAC-2; first compound 0.2 µM): 0.178 | relative viability (NCI-H358; first compound 0.002 µM): 0.662 | relative viability (NCI-H358; first compound 0.006325 µM): 0.66 | relative viability (NCI-H358; first compound 0.02 µM): 0.669 | relative viability (NCI-H358; first compound 0.06325 µM): 0.0646 | relative viability (NCI-H358; first compound 0.2 µM): 0.0598 | relative viability (LU99A; first compound 0.002 µM): 0.58 | relative viability (LU99A; first compound 0.006325 µM): 0.45 | relative viability (LU99A; first compound 0.02 µM): 0.263 | relative viability (LU99A; first compound 0.06325 µM): 0.201 | relative viability (LU99A; first compound 0.2 µM): 0.103 | relative viability (NCI-H1395; first compound 0.002 µM): 0.731 | relative viability (NCI-H1395; first compound 0.006325 µM): 0.751 | relative viability (NCI-H1395; first compound 0.02 µM): 0.508 | relative viability (NCI-H1395; first compound 0.06325 µM): 0.289 | relative viability (NCI-H1395; first compound 0.2 µM): 0.289 | relative viability (LC-2-ad; first compound 0.002 µM): 0.647 | relative viability (LC-2-ad; first compound 0.006325 µM): 0.727 | relative viability (LC-2-ad; first compound 0.02 µM): 0.554 | relative viability (LC-2-ad; first compound 0.06325 µM): 0.465 | relative viability (LC-2-ad; first compound 0.2 µM): 0.179 | relative viability (NCI-H2023; first compound 0.002 µM): 0.7 | relative viability (NCI-H2023; first compound 0.006325 µM): 0.527 | relative viability (NCI-H2023; first compound 0.02 µM): 0.236 | relative viability (NCI-H2023; first compound 0.06325 µM): 0.0453 | relative viability (NCI-H2023; first compound 0.2 µM): 0.0503 | relative viability (NCI-H1734; first compound 0.002 µM): 0.719 | relative viability (NCI-H1734; first compound 0.006325 µM): 0.719 | relative viability (NCI-H1734; first compound 0.02 µM): 0.436 | relative viability (NCI-H1734; first compound 0.06325 µM): 0.132 | relative viability (NCI-H1734; first compound 0.2 µM): 0.123 | relative viability (NCI-H2126; first compound 0.002 µM): 0.743 | relative viability (NCI-H2126; first compound 0.006325 µM): 0.765 | relative viability (NCI-H2126; first compound 0.06325 µM): 0.468 | relative viability (NCI-H2126; first compound 0.2 µM): 0.192 | relative viability (SW 900; first compound 0.002 µM): 0.455 | relative viability (SW 900; first compound 0.006325 µM): 0.489 | relative viability (SW 900; first compound 0.02 µM): 0.266 | relative viability (SW 900; first compound 0.06325 µM): 0.124 | relative viability (SW 900; first compound 0.2 µM): 0.0992 | relative viability (NCI-H1915; first compound 0.002 µM): 0.556 | relative viability (NCI-H1915; first compound 0.006325 µM): 0.506 | relative viability (NCI-H1915; first compound 0.02 µM): 0.415 | relative viability (NCI-H1915; first compound 0.06325 µM): 0.477 | relative viability (NCI-H1915; first compound 0.2 µM): 0.0602 | relative viability (NCI-H1437; first compound 0.002 µM): 0.92 | relative viability (NCI-H1437; first compound 0.006325 µM): 0.828 | relative viability (NCI-H1437; first compound 0.02 µM): 0.82 | relative viability (NCI-H1437; first compound 0.06325 µM): 0.601 | relative viability (NCI-H1437; first compound 0.2 µM): 0.218 | relative viability (HCC-44; first compound 0.002 µM): 1.1 | relative viability (HCC-44; first compound 0.006325 µM): 1.13 | relative viability (HCC-44; first compound 0.02 µM): 1.19 | relative viability (HCC-44; first compound 0.06325 µM): 1.11 | relative viability (HCC-44; first compound 0.2 µM): 0.924 | relative viability (HCC-15; first compound 0.002 µM): 0.792 | relative viability (HCC-15; first compound 0.006325 µM): 0.805 | relative viability (HCC-15; first compound 0.02 µM): 0.942 | relative viability (HCC-15; first compound 0.06325 µM): 0.583 | relative viability (HCC-15; first compound 0.2 µM): 0.173 | relative viability (NCI-H727; first compound 0.002 µM): 1.1 | relative viability (NCI-H727; first compound 0.006325 µM): 1.21 | relative viability (NCI-H727; first compound 0.02 µM): 0.832 | relative viability (NCI-H727; first compound 0.06325 µM): 1.04 | relative viability (NCI-H727; first compound 0.2 µM): 0.31 | relative viability (NCI-H2170; first compound 0.002 µM): 0.746 | relative viability (NCI-H2170; first compound 0.006325 µM): 0.698 | relative viability (NCI-H2170; first compound 0.06325 µM): 0.572 | relative viability (NCI-H2170; first compound 0.2 µM): 0.135 | relative viability (NCI-H1755; first compound 0.002 µM): 0.751 | relative viability (NCI-H1755; first compound 0.006325 µM): 0.774 | relative viability (NCI-H1755; first compound 0.02 µM): 0.835 | relative viability (NCI-H1755; first compound 0.06325 µM): 0.57 | relative viability (NCI-H1755; first compound 0.2 µM): 0.319 | relative viability (NCI-H3122; first compound 0.002 µM): 0.991 | relative viability (NCI-H3122; first compound 0.006325 µM): 0.973 | relative viability (NCI-H3122; first compound 0.02 µM): 0.456 | relative viability (NCI-H3122; first compound 0.06325 µM): 0.787 | relative viability (NCI-H3122; first compound 0.2 µM): 0.067 | relative viability (HOP-62; first compound 0.002 µM): 0.527 | relative viability (HOP-62; first compound 0.006325 µM): 0.555 | relative viability (HOP-62; first compound 0.02 µM): 0.454 | relative viability (HOP-62; first compound 0.06325 µM): 0.18 | relative viability (HOP-62; first compound 0.2 µM): 0.0867 | relative viability (BEN; first compound 0.002 µM): 0.608 | relative viability (BEN; first compound 0.006325 µM): 0.546 | relative viability (BEN; first compound 0.02 µM): 0.358 | relative viability (BEN; first compound 0.06325 µM): 0.525 | relative viability (BEN; first compound 0.2 µM): 0.36 | relative viability (NCI-H650; first compound 0.002 µM): 0.429 | relative viability (NCI-H650; first compound 0.006325 µM): 0.392 | relative viability (NCI-H650; first compound 0.02 µM): 0.298 | relative viability (NCI-H650; first compound 0.06325 µM): 0.158 | relative viability (NCI-H650; first compound 0.2 µM): 0.103

— the supplement of paper PMC10307832
